Experimental data as given in patent US12686690B2, “Macrocyclic urea orexin receptor agonists” (Merck Sharp & Dohme LLC, priority 2020, dated 2026).

Target: T1, hOX2R (Homo sapiens, UniProt O43614)
T1 construct: expressed in transfected cells; host or cells: CHO cells (G418 selection)
T1 sequence (O43614 1-444): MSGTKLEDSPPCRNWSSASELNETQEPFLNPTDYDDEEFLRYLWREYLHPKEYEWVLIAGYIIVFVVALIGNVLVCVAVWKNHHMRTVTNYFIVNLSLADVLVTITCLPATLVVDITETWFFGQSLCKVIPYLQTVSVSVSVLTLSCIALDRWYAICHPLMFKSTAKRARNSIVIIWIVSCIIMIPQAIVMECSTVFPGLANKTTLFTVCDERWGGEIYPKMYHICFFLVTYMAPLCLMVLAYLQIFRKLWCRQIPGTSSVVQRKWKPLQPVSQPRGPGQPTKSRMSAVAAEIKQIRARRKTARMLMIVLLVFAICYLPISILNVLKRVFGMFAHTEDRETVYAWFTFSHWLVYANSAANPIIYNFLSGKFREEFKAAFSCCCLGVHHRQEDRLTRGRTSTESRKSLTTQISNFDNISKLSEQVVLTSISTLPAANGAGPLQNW
Assay: hOX2R IPone assay (orexin receptor agonism)
Assay type: cell-based
Conditions: IPone readout; for hOX2R_Ipone max %act: maximal activation; for EC50: orexin receptor agonist, read-out: hOX2R_IPone EC50

| Molecule | hOX2R_Ipone max %act | EC50 |
| --- | --- | --- |
| CCN1C(=O)NCCNCCCOc2cn3ccnc3c(n2)-c2cccc(c2)[C@H]1C [Example 10, (R,E)-4-ethyl-3-methyl-13-oxa-4,6,9-triaza-1(6,8)-imidazo[1,2-a]pyrazina-2(1,3)-benzenacyclotridecaphan-5-one] | 97.61% | 950 nM |
| CCN1C(=O)NC(CCOC(F)F)CCCCCOc2nc(cn3ccnc23)-c2cc(ncc2OC)[C@H]1C (stereo partly drawn) [Example 182, (3R,E)-7-(2-(difluoromethoxy)ethyl)-4-ethyl-25-methoxy-3-methyl-13-oxa-4,6-diaza-1(6,8)-imidazo[1,2-a]pyrazina-2(4,2)-pyridinacyclotridecaphan-5-one] | 98.9% | 0.85 nM |
| CCN1C(=O)N[C@@H](CCC(F)(F)F)CCCCCOc2nc(cn3ccnc23)-c2nc(ccc2OC)[C@H]1C [Example 97, (12R,16R)-13-ethyl-8-methoxy-12-methyl-16-(3,3,3-trifluoropropyl)-12,13,16,17,18,19,20, 21-octahydro-6,23:11,7-di(azeno) imidazo[2,1-c][1,4,13,15]oxatriaza-cyclohenicosin-14(15H)-one] | 102% | 0.6 nM |
| CCN1C(=O)NC(COC)CCCCCOc2nc(cn3ccnc23)-c2cc(ncc2OC)[C@H]1C (single isomer, unassigned) [Example 58A] | 100.8% | 48.9 nM |
| (3R,E)-4-ethyl-25-methoxy-3- methyl-7-(2,2,3,3- tetrafluoropropyl)-13-oxa-4,6- diaza-1(6,8)-imidazo[1,2-a] pyrazina-2(4,2)-pyridina- cyclotridecaphan-5-one [Example 187] | 104.1% | 0.62 nM |
| CCN1C(=O)N[C@@H](C)CCCC(F)(F)COc2nc(cn3ccnc23)-c2cc(ncc2OC)[C@H]1C [Example 221, (3R,7S,E)-4-ethyl-11,11-difluoro-25-methoxy-3,7-dimethyl-13-oxa-4,6-diaza-1(6,8)-imidazo[1,2-a]pyrazina-2(4,2)-pyridinacyclotridecaphan-5-one] | 90.75% | 408 nM |
| CCN1C(=O)N[C@@H](CCC(F)(F)F)CCCCCOc2nc(cn3c(C)cnc23)-c2cc(nc3ccoc23)C1C (single isomer, unassigned) [Example 76A] | 98.9% | 204 nM |
| CCN1C(=O)NCc2nc(no2)CCOc2nc(cn3ccnc23)-c2cccc(c2)[C@H]1C [Example 23, (R,27E,64Z)-10-ethyl-11-methyl-3-oxa-8,10-diaza-6(3,5)-oxadiazola-2(6,8)-imidazo[1,2-a]pyrazina-1(1,3)-benzenacyclo-undecaphan-9-one] | 64.2% | 1010 nM |
| CCN1C(=O)NCCCOCCOc2nc(cn3ccnc23)-c2cc(ncc2OC)[C@H]1C [Example 7, (12R)-13-ethyl-8-methoxy-12-methyl-12,13,15,16,17,18,20,21-octahydro-14H-6,23-(azeno)-11,7-(metheno)imidazo[2,1-f][1,4,7,13,16,18]dioxatetra-azacyclohenicosin-14-one] | 100.6% | 4.6 nM |
| CCN1C(=O)N[C@@H](CCC(F)(F)F)CCCCCOc2nc(cn3ccnc23)C2=CN=C(O2)C1C (stereo partly drawn) [Example 108, (15R)-12-ethyl-11-methyl-15-(3,3,3-trifluoropropyl)-11,12,15,16,17,18,19, 20-octahydro-6,22-(azeno)-7,10-epoxyimidazo[2,1-c][1,4,9,12,14]oxatet-raazacycloicosin-13(14H)-one] | 100.6% | 14.9 nM |
| CCN1C(=O)N[C@@H](CCC(F)(F)F)COCCCOc2nc(cn3cnnc23)-c2cc(ncc2OC)[C@H]1C [Example 173, (3R,7S,E)-4-ethyl-25-methoxy-3-methyl-7-(3,3,3trifluoropropyl)-9,13-dioxa-4,6-diaza-1(6,8)-[1,2,4]triazolo[4,3-a]pyrazina-2(4,2)-pyridinacyclotridecaphan-5-one] | 103.9% | 3.71 nM |
| CCN1C(=O)NCC(C(F)(F)F)N(C)CCCOc2nc(cn3ccnc23)-c2cccc(c2)C1C [Example 26B, (3R,E)-4-ethyl-3,9-dimethyl-8-(trifluoromethyl)-13-oxa-4,6,9-triaza-1(6,8)-imidazo[1,2-a]pyrazina-2(1,3)-benzenacyclotridecaphan-5-one] | 98.8% | 12 nM |
| CCN1C(=O)NCCc2nc(no2)COc2nc(cn3ccnc23)-c2cccc(c2)[C@H]1C [Example 24, (R,27E,54Z)-10-ethyl-11-methyl-3-oxa-8,10-diaza-5(3,5)-oxadiazola-2(6,8)-imidazo[1,2-a]pyrazina-1(1,3)-benzenacyclo-undecaphan-9-one] | 61.5% | 814 nM |
| CCN1C(=O)N[C@@H](CCC(F)(F)F)CCCCCOc2nc(cn3ccnc23)-c2cc(cc(C)n2)[C@H]1C [Example 118B, (12R,16R)-13-ethyl-9,12-dimethyl-16-(3,3,3-trifluoropropyl)-12,13,16,17,18,19,20,21-octahydro-6,23-(azeno)-11,7-(metheno)imidazo[2,1-c][1,4,8,13,15]oxatetraazacyclohenicosin-14(15H)-one] | 99.7% | 2.6 nM |
| CCN1C(=O)NC(CCC(C)(C)F)CCCCCOc2nc(cn3ccnc23)-c2cc(ncc2OC)[C@H]1C (single isomer, unassigned) [Example 71B] | 101.6% | 1.6 nM |
| CCN1C(=O)N[C@@H](CCC(F)(F)F)CCCCCOc2nc(cn3ccnc23)-c2nc(ncc2OC)[C@H]1C [Example 117B, (12R,16R)-13-ethyl-8-methoxy-12-methyl-16-(3,3,3-trifluoropropyl)-12,13,16,17,18,19,20,21-octahydro-6,23:11,7-di(azeno)imidazo[2,1-c][1,4,10,13,15]oxatetraazacyclohenicosin-14(15H)-one] | 101.9% | 1.5 nM |
| CCN1C(=O)N[C@@H](CCC(C)(F)F)COCCCOc2nc(cn3ncnc23)-c2cc(ncc2C)[C@H]1C [Example 153, (3R,7S,E)-7-(3,3-difluorobutyl)-4-ethyl-25,3-dimethyl-9,13-dioxa-4,6-diaza-1(6,8)-[1,2,4]triazolo[1,5-a]pyrazina-2(4,2)-pyridinacyclotridecaphan-5-one] | 107.8% | 2.2 nM |
| CCN1C(=O)N[C@@H](CCC(F)(F)F)CCCCOc2nc(cn3ncnc23)-c2cc(ncc2OC)C1C(F)(F)F (single isomer, unassigned) [Example 34B] | 101.1% | 16.4 nM |
| CCN1C(=O)N[C@@H](CCC(F)(F)F)CCCCCOc2nc(cn3ccnc23)-c2ccnc(c2)[C@H]1C [Example 110, (3R,7R,E)-4-ethyl-3-methyl-7-(3,3,3-trifluoropropyl)-13-oxa-4,6-diaza-1(6,8)-imidazo[1,2-a]pyrazina-2(4,2)-pyridinacyclotridecaphan-5-one] | 100.2% | 1.3 nM |
| CCN1C(=O)NC(CCC(F)(F)F)CCC(F)(F)CCOc2nc(cn3ccnc23)-c2cc(ncc2OC)[C@H]1C (single isomer, unassigned) [Example 121A] | 100.4% | 9.8 nM |
| CCN1C(=O)NC(CCC(F)(F)F)COCCCOc2nc(cn3ccnc23)-c2cc(ncc2OC)[C@H]1C (single isomer, unassigned) [Example 21B] | 100.3% | 0.5 nM |
| CCN1C(=O)N[C@@H](CCC(F)(F)F)CCCCCOc2nc(cn3ccnc23)-c2cc(nnc2OC)[C@H]1C [Example 116, (12R,16R)-13-ethyl-8-methoxy-12-methyl-16-(3,3,3-trifluoropropyl)-12,13,16,17,18,19,20,21-octahydro-6,23-(azeno)-11,7-(metheno)imidazo[2,1-c][1,4,9,10,13,15]oxapentaazacyclohenicosin-14(15H)-one] | 99.7% | 1.6 nM |
| CCN1C(=O)NC(CC2CCCC2)CCCCCOc2nc(cn3ccnc23)-c2cc(ncc2OC)[C@H]1C (single isomer, unassigned) [Example 65B] | 101.9% | 1 nM |
| CCN1C(=O)N[C@@H](CCC(F)(F)F)CCCCCOc2nc(cn3ccnc23)-c2cc(c(C)cn2)C1C (single isomer, unassigned) [Example 92A] | 67.1% | 10100 nM |
| CCN1C(=O)NC(CC2CC2(F)F)CCCCCOc2nc(cn3ccnc23)-c2cc(ncc2OC)[C@H]1C (single isomer, unassigned) [Example 59C] | 99.3% | 0.5 nM |
| CCN1C(=O)N[C@@H](CCC(F)(F)F)CCCCCOc2nc(cc3ccnn23)-c2cc(ncc2OC)C1C (single isomer, unassigned) [Example 88B] | 102.3% | 0.7 nM |
| CCN1C(=O)NC(CC(O)C(F)(F)F)CCCCCOc2cn3ncnc3c(n2)-c2cc(ncc2OC)C1C [Example 130, (3R,7R,E)-4-ethyl-25-methoxy-3-methyl-7-((R)-3,3,3-trifluoro-2-hydroxypropyl)-13-oxa-4,6-diaza-1(6,8)-[1,2,4]triazolo[1,5-a]pyrazina-2(4,2)-pyridinacyclotridecaphan-5-one] | 102% | 1.48 nM |
| CCN1C(=O)N[C@@H](CCC(F)(F)F)CCCCCOc2cc(cc3ccnn23)-c2nc(cnc2OC)C1C (single isomer, unassigned) [Example 80B] | 99.8% | 2.9 nM |
